The text below walks through data of patent publication US5411965A, “Use of delta opioid receptor antagonists to treat cocaine abuse” (Arizona Board of Regents, priority 1993, dated 1995).

The target in one assay is delta opioid receptor (Mus musculus, UniProt P32300). Kind of assay: Antagonism of DADLE in the mouse vas deferens (MVD) preparation. The format is cell-based. As to conditions: in words. Here is the method: Furthermore, the MVD responds selectively to delta opioids.
(§1) 2. Mouse Vas Deferens (MVD). […] The organ bath was maintained at 37° C.

The subject of assay [1] is mouse vas deferens (MVD) and guinea pig ileum (GPI). Description: Agonist activity in MVD and GPI preparations. As to conditions: in words. The format is cell-based. On the procedure: 1. Guinea Pig Ileal Longitudinal Muscle (GPI). Ilea from guinea pigs were taken approximately 10 cm from the ileocaecal junction, and a strip of longitudinal muscle with the myenteric plexus attached was prepared by method of Rang et al., Brit. J. Pharmacol., 22, 356 (1964), the disclosure of which is incorporated by reference herein. A 1 cm portion of this strip was then mounted between two platinum electrodes placed in a 10 ml organ bath and connected to an isometric transducer. Contractions were recorded on a polygraph. […] The organ bath was maintained at 36°-37° C. The longitudinal muscle strip was allowed to equilibrate with continuous stimulation for a minimum of 90 min.
as §1

The next assay addresses kappa opioid receptor. As to conditions: agonist ethylketazocine in GPI; antagonist 100 or 200 nM, 15 min; read-out: Ke, EK; cited from earlier work.
Another assay has as its target mu opioid receptor. As to conditions: agonist morphine in GPI; antagonist 100 or 200 nM, 15 min; read-out: Ke; cited from earlier work.

delta opioid receptor, sequence (P32300 whole entry): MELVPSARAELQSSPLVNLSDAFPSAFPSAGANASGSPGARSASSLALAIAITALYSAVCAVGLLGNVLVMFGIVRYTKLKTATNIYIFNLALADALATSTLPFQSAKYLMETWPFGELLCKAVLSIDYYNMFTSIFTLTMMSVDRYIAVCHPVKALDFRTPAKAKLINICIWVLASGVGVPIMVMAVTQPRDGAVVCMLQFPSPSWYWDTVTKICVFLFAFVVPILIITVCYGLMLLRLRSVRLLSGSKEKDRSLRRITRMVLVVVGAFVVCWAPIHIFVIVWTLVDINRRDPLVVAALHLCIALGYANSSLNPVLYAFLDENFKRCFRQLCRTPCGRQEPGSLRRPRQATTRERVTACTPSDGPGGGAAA

In the case of `CN1CC[C@]23c4c5ccc(O)c4O[C@H]2c2[nH]c4ccccc4c2C[C@@]3(O)[C@H]1C5` [Compound 7], the “antagonism of the effect of the delta agonist DADLE” value on delta opioid receptor was “inactive”. Besides, the agonist activity entry in assay [1] is reported as “exhibited partial agonist activity”.
For the compound `Oc1ccc2c3c1O[C@H]1c4nc5ccccc5cc4C[C@@]4(O)[C@@H](C2)N(CC2CC2)CC[C@]314` [Compound 17], the “delta antagonist potency and selectivity” value on delta opioid receptor was “A similar relationship was observed”. Further, the Kb was 16.3 nM at kappa opioid receptor and 11.3 nM at mu opioid receptor.
As for `Oc1ccc2c3c1O[C@H]1c4nc5ccccc5nc4C[C@@]4(O)[C@@H](C2)N(CC2CC2)CC[C@]314` [Compound 16], the “delta antagonist potency and selectivity” value at delta opioid receptor was “A similar relationship was observed”. In addition, the Kb was 13.4 nM on kappa opioid receptor and 6.1 nM at mu opioid receptor.
On to `Oc1ccc2c3c1O[C@H]1c4oc5ccccc5c4C[C@@]4(O)[C@@H](C2)N(CC2CC2)CC[C@]314` [Compound 8, 17-(cyclopropylmethyl)-6,7-dehydro-3,14β-dihydroxy-4,5α-epoxy-6,7-2',3'-benzo[b]furanomorphinan], for which the “delta antagonist potency and selectivity” value on delta opioid receptor is “less potent and less selective than 1 as a delta antagonist, nevertheless retains substantial delta antagonist activity”. The Kb on kappa opioid receptor is 50.8 nM; at mu opioid receptor, 30.8 nM.
